From patent publication US6730707B2, “Method for reducing intraocular pressure using indole derivatives” (Inspire Pharmaceuticals, Inc., priority 2000, dated 2004)
Where two headings read alike, the source gives them in different places.

System: New Zealand white rabbits
Experiment: Effects on intraocular pressure (IOP) in rabbits, TONOPEN contact tonometer, topical unilateral application
Format: in vivo, rabbit
Conditions: for maximal reduction of IOP / IC50: topical; for maximal reduction of IOP: n=8; for IC50: Oryctolagus cuniculus; for persistence of the IOP-lowering effect / time at which the maximal effect on IOP was observed: after topical application; for IOP-lowering effect after pretreatment with luzindole: luzindole 100 μg/10 μL applied 30 min before (FIG. 4)
Description: IOP was measured using a TONOPEN contact tonometer supplied by Xomed (Jacksonville, Fla., USA). Ten microliters of the agents were applied topically and unilaterally to the cornea, whereas the contralateral eye received the same volume of saline solution. The corneas were anesthetized to avoid any discomfort associated with the use of the tonometer. Two measurements were made before application of the agents. Melatonin (Sigma, St. […] A single dose was tested in a single animal on a single day.

Compound | maximal reduction of IOP (5-MCA-NAT, maximal at 100 pg/10 μL) [%] | IC50 (read-out: IC50 for lowering IOP) [µg/mL] | IC50 (read-out: IC50 for lowering IOP, equivalent dose) [nM] | persistence of the IOP-lowering effect [h] | time at which the maximal effect on IOP was observed [h] | maximal IOP response relative to melatonin (comparison of maximal responses) | IOP-lowering effect after pretreatment with luzindole | effect on IOP when applied alone (100 μg/10 μL, over a duration of six hours) | IC50 (equivalent of the IC50 dose (FIG. 3), read-out: IC50 for lowering IOP, equivalent dose) [nM] | IC50 for lowering IOP (dose-response 10 pg/10 μL to 1 mg/10 μL, topical (FIG. 3)) [ng/10 μL] | maximal reduction of IOP (melatonin, maximal at 10 μg/10 μL) [%]
COC(=O)Nc1ccc2[nH]cc(CCNC(C)=O)c2c1 [Example 5-MCA-NAT, 5-(methoxycarbonylamino)-N-acetyltryptamine] | 43.1±3.65 | 423 ± 30 | 1.8 ± 0.1 | 10 | 2 | almost twice | abolished | – | – | – | –
CC(=O)NCCc1c(Cc2ccccc2)[nH]c2ccccc12 [luzindole] | – | – | – | – | – | – | – | had no effect | – | – | –
COc1ccc2[nH]cc(CCNC(C)=O)c2c1 [melatonin] | – | – | – | 3 | 1 | – | abolished | – | 1.6 ± 0.1 | 363±23.0 | 24±4.4
